Assay results published in paper PMC9490176 (Frontiers in Pharmacology, 2022).
Like-named read-outs stand apart in the source and are kept apart here. Blank lines part the entries; values can stand above or below the compound they belong to.

Legend:
[1] = Stability evaluation in rat plasma (UPLC-MS/MS method validation); format: in vitro ADME; settings: n = 6
Source text: The test method was extensively verified regarding precision, accuracy, and stability, according to the EMA (European Medicines Agency) 2011 and FDA (Food and Drug Administration) 2018 criteria. In six replicates, quality control (QC) samples were generated at low, medium, and high concentrations and were utilized to validate the procedure. This method was designed to conform to EMA and FDA regulatory requirements for bioanalytical methods.

[2] = tested on: pyrotinib metabolism in rat liver microsomes (RLMs); experiment: In vitro drug-drug interaction study: azole inhibition of pyrotinib metabolism (M1 formation) in RLMs; format: in vitro ADME, Sprague-Dawley (SD) rat; settings: for IC50: 0.3 mg/ml RLMs, 1 mM NADPH, 37°C, 30 min, n = 3; for Ki / αKi: RLMs, pyrotinib 1, 2, 4, 8 µM, Lineweaver-Burk analysis
Procedure: (§1) The rats were anesthetized with 10% chloral hydrate after 12 h of starvation. […] The rat liver tissue was then accurately removed and transferred to Petri dishes at 0–4°C. The tissues were homogenized in 0.15 mol/L KCl-PBS buffer and stored at 4°C. The homogenate (CR30NX, Eppendorf, Germany) was centrifuged at 9000 rpm at 4°C for 30 min. The supernatant was transferred to another tube and was centrifuged at 105000 rpm at 4°C for 60 min. The precipitate containing liver microsomes was removed and suspended in 0.15 mol/L KCl-PBS buffer (containing 0.25 mol/L sucrose) and stored at −80°C for later use. The liver microsomal concentration was 8.838 mg/ml after the determination with the BCA protein quantification kit (Thermo Scientific, Waltham, MA, United States).
Waters Acquity UPLC I-Class (Waters, USA) was used to separate pyrotinib and midazolam. A binary solvent manager (BSM) and sample manager with a flow-through needle (SM-FTN) were used in the UPLC system. The metabolites’ effective separation was achieved using Acquity UPLC HSS T3 (100 × 2.1 mm, 1.8 μm particle size) (Waters Corporation, Milford, MA, USA) with a mobile phase of acetonitrile (solvent A) and 0.1% formic acid water containing 20 mmol ammonium acetate (solvent B). The gradient program was set as following: 0–0.3 min 10–30% A; 0.3–1 min 30–95% A; 1–2 min 95% A; 2–2.3 min 95–10% A. The mobile phase’s flow rate was 0.4 mL/min, the column temperature was set as 40 °C, and the injection volume was 2 μL. The XEVO TQD triple quadrupole mass spectrometer was equipped with an electrospray ionization (ESI) source, and the multiple reaction monitoring (MRM) mode was selected for quantification. The data were collected using the Mass lynx 4.1 software (Waters Corp.). Mass spectral data were obtained in positive electrospray mode (ESI+) in MRM mode. Nitrogen was used as desolvation (1000 L/h) and cone gases (50 L/h). The ion monitoring voltage conditions were as follows: capillary voltage, 2.5 kV; source temperature, 150°C; desolvation temperature, 500°C. Various reaction monitoring methods were used for quantitative analysis.
200 µl of the incubation mixture was set up as following: 0.3 mg/ml RLMs, 100 mM potassium phosphate buffer (pH 7.4), 1 mM NADPH, and three azole antifungal drugs. […] For fluconazole and itraconazole, the concentrations of them were all adjusted to 0.01, 0.1, 1, 5, 10, 50, and 100 µM. […] The ingredients were combined and pre-warmed for 5 min at 37°C. The reaction was initiated with NADPH and incubated at 37°C for 30 min. Then, 200 µl of acetonitrile-midazolam solution (containing midazolam 200 ng/ml) was added and the mixture was vortexed for 2 min to stop the reaction. After been centrifuged at 13000 rpm for 5 min, 2 µl aliquot of the supernatant was then used for the UPLC-MS/MS analysis.
(§2) GraphPad Prism 7.0 software (GraphPad Software Inc.) was used to calculate the enzyme kinetic parameters of substrates which include Vmax, Km, IC50, Ki, and αKi values. The enzyme inhibition mode was obtained using the Linear Lineweaver-Burk plots. The PK characteristics, maximal plasma concentration (Cmax), time to peak plasma concentration (Tmax), apparent volume of distribution (Vz/F), area under the plasma concentration-time curve (AUC), elimination half-life (t1/2), plasma clearance (Cl/F), and mean residence time (MRT), were calculated using DAS (Drug and Statistics) software (Version 3.2.8, The People’s Hospital of Lishui, China). The one-way ANOVA and a Dunnet’s multiple range test were used for the statistical comparisons within groups with SPSS software (Version 25.0; SPSS Inc.). Statistical significance was set at p < 0.05.

[3] = In vivo pharmacokinetics of pyrotinib in rats with or without azole pretreatment; set-up: species or system Sprague-Dawley rats; settings: rat; for AUC(0-inf) / AUC(0-t) / CL/F / Cmax / Vd/F: male, Sprague-Dawley, plasma, po, 8 mg/kg; for AUC(0-inf) / AUC(0-t) / CL/F / Cmax / Vd/F / MRT(0-t) / MRT(0-∞) / Tmax / t1/2: 8 mg/kg pyrotinib oral; for AUC(0-inf) / AUC(0-t) / CL/F / Cmax / MRT(0-t) / MRT(0-∞) / Tmax / t1/2: n = 6; for Vd/F: n = 6, read-out: Vz/F
Procedure: Male Sprague-Dawley rats (180–220 g) were supplied by the Experimental Animal Center of Wenzhou Medical University. The animals were placed in a controlled environment of 20–26°C and 55 ± 15% relative humidity under a 12 h light-dark cycle. Except for the 12-h fasting period before the PK study, all rats were fed a standard rodent diet and freely consumed tap water. All experimental procedures and protocols were reviewed and approved by the Animal Care and Use Committee of the Wenzhou Medical University (No. wydw 2019-650), following the Guidelines for The Care and Use of Laboratory Animals. […] After the last administration of the three azoles or 0.5% CMC-Na (control group), a single dose of 8 mg/kg pyrotinib was administered orally to all rats in each group. Each group consisted of 6 rats. The azole antifungal medication was dissolved in 0.5% carboxymethylcellulose sodium solution (CMC-Na). […] The plasma was obtained by centrifuging the blood samples at 4000 rpm for 10 min at 4°C and stored at −80°C until analysis. The frozen plasma samples were thawed at room temperature and uniformly mixed; 50 μL of plasma sample was removed and mixed with 150 μL acetonitrile-midazolam solution (containing midazolam 200 ng/ml) to precipitate the proteins, followed by vortexing for 30 s and centrifuging at 13,000 rpm for 5 min. Then 150 μL of the supernatant was collected and placed into UPLC vials with 2 μL of sample was subjected to UPLC-MS/MS analysis. GraphPad Prism 7.0 software (GraphPad Software Inc.) was used to calculate the enzyme kinetic parameters of substrates which include Vmax, Km, IC50, Ki, and αKi values. The enzyme inhibition mode was obtained using the Linear Lineweaver-Burk plots. The PK characteristics, maximal plasma concentration (Cmax), time to peak plasma concentration (Tmax), apparent volume of distribution (Vz/F), area under the plasma concentration-time curve (AUC), elimination half-life (t1/2), plasma clearance (Cl/F), and mean residence time (MRT), were calculated using DAS (Drug and Statistics) software (Version 3.2.8, The People’s Hospital of Lishui, China). The one-way ANOVA and a Dunnet’s multiple range test were used for the statistical comparisons within groups with SPSS software (Version 25.0; SPSS Inc.). Statistical significance was set at p < 0.05.

[4] = tested on: rat liver microsomes (RLMs); experiment: Michaelis-Menten kinetics of pyrotinib metabolism in RLMs; format: in vitro ADME, Sprague-Dawley (SD) rat; settings: pyrotinib 0.5–25 μM in RLMs
Procedure: as §1, with “States). […]” for “States).”
as §2, with “The enzyme inhibition mode was obtained using the Linear Lineweaver-Burk plots.” left out, “The one-way ANOVA and a Dunnet’s multiple range test were used for the statistical comparisons within groups with SPSS software (Version 25.0; SPSS Inc.). Statistical significance was set at p < 0.05.” left out

[5] = set-up: method as in Ma et al., 2017; settings: following the initial dose of 80–400 mg pyrotinib; ref Ma et al., 2017; cited from earlier work
[6] = set-up: method as in Shi et al., 2011; settings: with ketoconazole compared with ruxolitinib alone; ref Shi et al., 2011; cited from earlier work
[7] = 4°C, 24 h, high concentration (pyrotinib 4500, pyrotinib M1 0.75 μM)
[8] = 4°C, 24 h, low concentration (pyrotinib 15, pyrotinib M1 0.015 μM)
[9] = 4°C, 24 h, medium concentration (pyrotinib 150, pyrotinib M1 0.15 μM)
[10] = Room temperature, 6 h, high concentration (pyrotinib 4500, pyrotinib M1 0.75 μM)
[11] = Room temperature, 6 h, low concentration (pyrotinib 15, pyrotinib M1 0.015 μM)
[12] = Room temperature, 6 h, medium concentration (pyrotinib 150, pyrotinib M1 0.15 μM)
[13] = −80°C, 7 days, high concentration (pyrotinib 4500, pyrotinib M1 0.75 μM)
[14] = −80°C, 7 days, low concentration (pyrotinib 15, pyrotinib M1 0.015 μM)
[15] = −80°C, 7 days, medium concentration (pyrotinib 150, pyrotinib M1 0.15 μM)
[16] = after 40 mg/kg fluconazole for 7 days
[17] = after 40 mg/kg itraconazole for 7 days
[18] = after 40 mg/kg ketoconazole for 7 days

IC50 [2]: 11600 nM
Ki [2]: 15100 nM
αKi [2]: 19.01 µM
Structure (SMILES): OC(Cn1cncn1)(Cn1cncn1)c1ccc(F)cc1F [fluconazole, Fluconazole]

IC50 [2]: 270 nM
Ki [2]: 496 nM
αKi [2]: 0.334 µM
inhibitory effect on pyrotinib in vivo ([3]; 40 mg/kg azole for 7 days, then 8 mg/kg pyrotinib oral): no inhibitory effect
Structure (SMILES): CCC(C)n1ncn(-c2ccc(N3CCN(c4ccc(OCC5COC(Cn6cncn6)(c6ccc(Cl)cc6Cl)O5)cc4)CC3)cc2)c1=O (stereo not shown) [itraconazole, Itraconazole]

Km [4]: 4.09 µM
Stability in rat plasma, RE [1, 7]: 101.04%
Stability in rat plasma, RE [1, 8]: 102.40%
Stability in rat plasma, RE [1, 9]: 107.05%
Stability in rat plasma, RE [1, 10]: 103.56%
Stability in rat plasma, RE [1, 11]: 105.41%
Stability in rat plasma, RE [1, 12]: 106.18%
Stability in rat plasma, RE [1, 13]: 100.79%
Stability in rat plasma, RE [1, 14]: 98.95%
Stability in rat plasma, RE [1, 15]: 108.01%
AUC(0-inf) [3, 16]: 29200 ng·h/mL
AUC(0-t) [3, 16]: 29100 ng·h/mL
CL/F [3, 16]: 4.83 mL/min/kg
Cmax [3, 16]: 4290 ng/mL
Vd/F [3, 16]: 1.09 ± 0.21 L/kg
AUC(0-inf) [3, 17]: 18000 ng·h/mL
AUC(0-t) [3, 17]: 18000 ng·h/mL
CL/F [3, 17]: 7.5 mL/min/kg
Cmax [3, 17]: 3000 ng/mL
Vd/F [3, 17]: 1 ± 0.58 L/kg
AUC(0-inf) [3, 18]: 36500 ng·h/mL
AUC(0-t) [3, 18]: 36300 ng·h/mL
CL/F [3, 18]: 3.83 mL/min/kg
Cmax [3, 18]: 4680 ng/mL
Vd/F [3, 18]: 0.89 ± 0.24 L/kg
AUC(0-inf) ([3]; control group (0.5% CMC-Na)): 17800 ng·h/mL
AUC(0-t) ([3]; control group (0.5% CMC-Na)): 17800 ng·h/mL
CL/F ([3]; control group (0.5% CMC-Na)): 7.67 mL/min/kg
Cmax ([3]; control group (0.5% CMC-Na)): 3060 ng/mL
Vd/F ([3]; control group (0.5% CMC-Na)): 0.81 ± 0.25 L/kg
MRT(0-t) [3, 16]: 5.28 ± 0.24 H
MRT(0-∞) [3, 16]: 5.37 ± 0.27 H
Tmax [3, 16]: 3.83 ± 0.41 H
t1/2 [3, 16]: 2.66 ± 0.15 H
MRT(0-t) [3, 17]: 4.55 ± 0.36 H
MRT(0-∞) [3, 17]: 4.56 ± 0.37 H
Tmax [3, 17]: 4.00 ± 1.10 H
t1/2 [3, 17]: 1.47 ± 0.63 H
MRT(0-t) [3, 18]: 5.38 ± 0.38 H
MRT(0-∞) [3, 18]: 5.47 ± 0.38 H
Tmax [3, 18]: 4.00 ± 1.10 H
t1/2 [3, 18]: 2.66 ± 0.20 H
MRT(0-t) ([3]; control group (0.5% CMC-Na)): 4.32 ± 0.40 H
MRT(0-∞) ([3]; control group (0.5% CMC-Na)): 4.32 ± 0.42 H
Tmax ([3]; control group (0.5% CMC-Na)): 3.50 ± 1.23 H
t1/2 ([3]; control group (0.5% CMC-Na)): 1.26 ± 0.54 H
decrease of Cl/F compared to the control group ([3]; coadministrated with ketoconazole): approximately 50%
decrease of Cl/F compared with control group ([3]; fluconazole group): 0.37 fold
increase of AUC(0-t) compared with control group ([3]; fluconazole group): 0.63 fold
increase of Cmax compared with control group ([3]; fluconazole group): 0.40 fold
decrease of Cl/F compared with control group ([3]; ketoconazole group): 0.50 fold
increase of AUC(0-t) compared with control group ([3]; ketoconazole group): 1.04 fold
increase of Cmax compared with control group ([3]; ketoconazole group): 0.53 fold
Structure (SMILES): CCOc1cc2ncc(C#N)c(Nc3ccc(OCc4ccccn4)c(Cl)c3)c2cc1NC(=O)/C=C/[C@H]1CCCN1C [pyrotinib, Pyrotinib]
Vmax [4]: 58.33 pmol/min/mg protein
mean terminal half-life (t1/2) [5]: 11.4 to 15.9 h
time required to attain maximum plasma concentration (Tmax) [5]: 3 to 5 h

Further lines, the compound ahead of its results:

Structure (SMILES): CCOc1cc2ncc(C#N)c(Nc3ccc(O)c(Cl)c3)c2cc1NC(=O)/C=C/[C@@H]1CCCN1C [Pyrotinib M1, O-depicolyl pyrotinib]
Stability in rat plasma, RE [1, 7]: 103.58%
Stability in rat plasma, RE [1, 8]: 104.44%
Stability in rat plasma, RE [1, 9]: 108.67%
Stability in rat plasma, RE [1, 10]: 108.42%
Stability in rat plasma, RE [1, 11]: 102.22%
Stability in rat plasma, RE [1, 12]: 102.44%
Stability in rat plasma, RE [1, 13]: 104.47%
Stability in rat plasma, RE [1, 14]: 109.33%
Stability in rat plasma, RE [1, 15]: 107.56%

Structure (SMILES): CC(=O)N1CCN(c2ccc(OCC3COC(Cn4ccnc4)(c4ccc(Cl)cc4Cl)O3)cc2)CC1 (stereo not shown) [ketoconazole, Ketoconazole]
IC50 [2]: 60 nM
Ki [2]: 132 nM
αKi [2]: 0.077 µM

Structure (SMILES): N#CC[C@H](C1CCCC1)n1cc(-c2ncnc3[nH]ccc23)cn1 [ruxolitinib]
increase of plasma exposure [6]: 91%
